How the values were obtained:
[1] = test system: mpo:GFP zebrafish embryos (neutrophil migration to the wound site); test: mpo:GFP zebrafish fin-clip neutrophil migration (inflammation) assay; format: in vivo; design: mpo:GFP inflammation n (survived/tested): concentration or dose not given beside the values; details: for minimal effective concentration: Danio rerio, Neutrophil, lowest concentration producing an effect, compounds not producing an effect shown at the highest evaluated concentration; for mpo:GFP inflammation n (survived/tested): embryos survived/tested at the concentration given
Excerpt: (§1) Zebrafish embryology: The use of zebrafish embryo (Danio rerio) bioassays as a preclinical model in the classification of novel compounds has increased in recent years due to several factors including; low cost, ease of maintenance, speed of embryonic development, transparency of the embryos and genetic conservation between zebrafish and humans (Howe et al., Nature 2013; 496:498; Therapontos et al., PNAS 2009, 106:8573; Mahony et al., PNAS 2013, 110:12703; Beedie et al., Oncotarget 2016, 7(22):33237; Beedie et al., Mol. Cancer Ther. 2015, 14(10):2228). Two established zebrafish reporter lines were used—the fli1:EGFP line, where the fli1 promoter drives expression of enhanced green fluorescent protein within the developing vasculature (Lawson et al., 2002), and the Tg(mpo::EGFP) line (also known as mpo:GFP), which expresses green fluorescent protein via the neutrophil specific myeloperoxidase promoter (Renshaw et al., Blood 2006, 108:3976). The use of these zebrafish transgenic reporter lines allows for the identification of potential anti-angiogenic and anti-inflammatory compounds respectively, and both have been used previously to successfully classify the action of thalidomide analogs (Therapontos et al., 2009; Mahony et al., 2013; Beedie et al., Oncotarget 2016, 7(22):33237; Beedie et al., Mol. Cancer Ther. 2015, 14(10):2228). Zebrafish embryos were treated with analogs as previously described (Mahony et al., 2013). Briefly, fli1:EGFP embryos were collected and embryos were allowed to develop for 24 hours. Embryos were dechorionated manually and exposed to test compounds or vehicle control for a further 24 hours, imaged and analyzed for intersegmental vessel (ISV) growth. At 24 hours post fertilisation (hpf) the ISVs were ideal to study to visualize and analyze the actions of compounds on angiogenesis. At this time point ISVs were rapidly forming beneath the developing head, over the body and had yet to form in the tail (Lawson and Weinstein, Developmental Biology 2002, 248:307; Therapontos and Vargesson, Developmental Dynamics 2010, 239:2761). Additionally, these sprouts would go on to form the bilateral dorsal longitudinal anastomotic vessels. By treating before this fusion and formation occurs, the effect of each compound on the individual vessels as well as overall patterning structural integrity (Isogai et al., Development 2003, 130:5281) could be determined. Tg(mpo::EGFP) were tail fin clipped as previously detailed (Renshaw et al., 2006; Mahony et al., 2013; Beedie et al., Oncotarget 2016, 7(22):33237; Beedie et al., Mol. Cancer Ther. 2015, 14(10):2228) and incubated with test compounds or vehicle control at 72 hours post fertilization. Fish were imaged at 24 hours and the number of migratory neutrophils present at the wound site were counted. Compounds inducing an at least 50% reduction of neutrophils to the wound site were considered to have anti-inflammatory properties in this system. All larvae were assessed for viability and morphological integrity.
To assess the immunomodulatory effects of the thalidomide analogs, the mpo:gfp transgenic zebrafish line (Renshaw et al., Blood 2006, 108:3976-3978) was utilized because it is an accepted model of inflammation, and can be used to test the effect of anti-inflammatory agents. These embryos express GFP-tagged myeloperoxidase, where green fluorescence marks the neutrophil cells involved in the inflammatory response process, for example following injury, from 72 hours post fertilization (Renshaw et al., 2006; Mahony et al., 2013; Beedie et al., Oncotarget 2016, 7(22):33237). At 72 hpf the dorsal third of the tail fin was removed and the embryos were immersed in the desired compound or vehicle (FIGS. 5A-5C). The embryos were examined for the effect on the inflammatory response quantified as an induction and migration of neutrophils to the wound site 24 hours later.

[2] = test system: nitrite levels in the culture media; test: Nitrite level (Griess Reagent System) in LPS-challenged RAW 264.7 cells; format: cell-based, mouse; design: key: NS=not significant; a “+” sign=anti-inflammatory or increased cell numbers; a “−” sign=cell toxicity or pro-inflammatory; details: LPS 30 or 60 ng/mL, 24 h
Experimental: Nitrite levels in the culture media were measured by use of the Griess Reagent System (Promega, Madison, Wis.), following the manufacturer's protocol. The O.D. of unknown samples was read at 520 nm λ, compared to a sodium nitrite standard curve (1.5 μM to 100 μM) and nitrite measured media concentrations expressed as μM units. As the lowest nitrite concentration on the Griess Reagent System standard curve was 1.5 μM, this was chosen as the effective cutoff for defining measurable nitrite concentrations. TNF-α protein levels were measured by use of an ELISA specific for mouse TNF-α protein (BioLegend, San Diego, Calif.) and are expressed as a % change from their appropriate control or as pg/ml.
RAW 264.7 cells obtained from ATCC (Manassas, Va., USA) were grown in DMEM media supplemented with 10% FCS, penicillin 100 μg/ml and streptomycin 100 μg/ml, and maintained at 37° C. and 5% CO2. Cells were seeded in 24 well plates and, 24 hours later, were utilized in studies. One hour prior to the initiation of any study, the seeding media was replaced with fresh media (1 mL), and the cells were allowed to equilibrate at 37° C. and 5% CO2.
RAW 264.7 cells were challenged with LPS (Sigma, St Louis, Mo.: serotype 055:B5) from at a final concentration of 30 or 60 ng/mL. This concentration of LPS in RAW 264.7 cells induces a sub-maximal rise in both TNF-alpha and nitrite levels without a loss in cellular viability. This sub-maximal rise is useful for assessing whether the addition of an experimental drug can either lower or further raise levels of TNF-α and nitrite. Twenty four hours following the addition of LPS, conditioned media was harvested and analyzed for quantification of secreted TNF-α protein and nitrite levels. Fresh media was replaced into the wells and cell viability was then assessed.
Thalidomide and analogs were prepared in tissue culture grade DMSO (Sigma). RAW 264.7 cells were pretreated with thalidomide, analogues or vehicle one hour prior to a challenge with LPS. The effects of various concentrations of thalidomide analogues were assessed. All compounds were synthesized to a chemical purity of >99.5%, as assessed by chemical characterization by a combination of 1H NMR, 13C NMR and GC/MS analyses (Bruker AC-300 spectrometer, together with elemental analyses (Atlantic Microlab, Inc., Norcross, Ga.).

[3] = test system: TNF-α protein; test: TNF-α protein level (ELISA) in LPS-challenged RAW 264.7 cells; format: cell-based, mouse; design: key: NS=not significant; a “+” sign=anti-inflammatory or increased cell numbers; a “−” sign=cell toxicity or pro-inflammatory; details: LPS 30 or 60 ng/mL, 24 h
Summary of the method: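 RAW 264.7 cells pretreated 1 h with compound in DMSO vehicle, then challenged with LPS (30 or 60 ng/mL) for 24 h at 37° C. Conditioned-media nitrite by Griess (520 nm, sodium nitrite standard curve, 1.5 μM cutoff) in μM; mouse TNF-α by ELISA as pg/ml or % change from control.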

[4] = test system: RAW 264.7 cells; test: Cell viability (CellTiter 96 AQueous One) of LPS-challenged RAW 264.7 cells; format: cell-based, mouse; design: key: NS=not significant; a “+” sign=anti-inflammatory or increased cell numbers; a “−” sign=cell toxicity or pro-inflammatory
Summary of the method: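 RAW 264.7 murine macrophages pretreated 1 h with compound or DMSO vehicle, then challenged with LPS (serotype 055:B5) at 30 or 60 ng/mL final for 24 h. After media replacement, viability measured by tetrazolium (MTS) conversion, absorbance at 490 nm, reported as O.D.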

[5] = test system: fli1:EGFP zebrafish embryos (intersegmental vessel growth); test: fli1:EGFP zebrafish embryo angiogenesis assay; format: in vivo; design: fli1:EGFP angiogenesis n (survived/tested): concentration or dose not given beside the values; details: for minimal effective concentration: Danio rerio, lowest concentration producing an effect, compounds not producing an effect shown at the highest evaluated concentration; for fli1:EGFP angiogenesis n (survived/tested): embryos alive after 24 hours of exposure
Excerpt: as §1
To determine if the thalidomide analogs had any effect on angiogenesis, fli1:EGFP embryos (Lawson and Weinstein, Developmental Biology 2002, 248:307-318) were exposed to either vehicle or a compound of interest, over a range of concentrations and over a range of time points starting at 24 hpf. Images were obtained at three time points over 24 hours after exposure to the compounds. The best concentration and time point were selected. CPS49, a compound that is chemically and structurally similar to thalidomide breakdown products, and is tetrafluorinated (which adds stability and bioactivity to the compound) and that causes severe limb defects in chicken embryos, was used as a positive control. The embryos were imaged at 48 hpf (FIGS. 3A3L) and analyzed for both vessel formation and the extent of growth of the vasculature. […]

Row | SMILES | minimal effective concentration [1] | mpo:GFP inflammation n (survived/tested) [1] | Nitrite ([2]; 30 μM) | Nitrite ([2]; 60 μM) | Nitrite ([2]; 100 μM) | TNF-α ([3]; 30 μM) | TNF-α ([3]; 60 μM) | TNF-α ([3]; 100 μM) | Viability ([4]; 30 μM) | Viability ([4]; 60 μM) | Viability ([4]; 100 μM) | minimal effective concentration [5] | fli1:EGFP angiogenesis n (survived/tested) [5] | TNF-α ([3]; 1 μM) | TNF-α ([3]; 10 μM) | Viability ([4]; 1 μM) | Viability ([4]; 10 μM) | Nitrite ([2]; 1 μM) | Nitrite ([2]; 10 μM) | anti-inflammatory activity (inhibition of neutrophil migration) ([1]; in words)
1 | O=C1c2cccc([N+](=O)[O-])c2C(=O)N1C1CCC(=S)NC1=S (stereo not drawn) [Compound 9, 2-(2,6-Dithioxo-3-piperidinyl)-4-nitro-1H-isoindole-1,3(2H)-dione] | 10 µg/mL | 12/12 | + | + | + | NS | NS | NS | NS | NS | + | 10 µg/mL | 14/21 |  |  |  |  |  |  | 
2 | O=C1CCC(N2Cc3ccccc3C2=O)C(=O)N1CSC(=S)NC1CCCCC1 (stereo not drawn) [Compound 52] | 100 µg/mL | 7/21 |  |  |  | + |  |  | NS |  |  | 100 µg/mL | 6/7 | + | + | NS | NS |  |  | 
3 | O=C1CCC(N2Cc3ccccc3C2=O)C(=O)N1CSC(=S)N1CCCCC1 (stereo not drawn) [Compound 53] | 10 µg/mL | 13/19 |  |  |  | NS |  |  | + |  |  | 10 µg/mL | 9/14 | + | + | − | NS |  |  | 
4 | O=C1CCC(N2C(=O)c3cccnc3C2=O)C(=O)N1 (stereo not drawn) [Compound 57] | 17 µg/mL | 8/15 | + |  |  | NS |  |  | NS |  |  | 8.5 µg/mL | 8/12 | NS | NS | NS | NS | NS | + | 
5 | O=C1CCC(N2C(=O)c3ccncc3C2=O)C(=O)N1 (stereo not drawn) [Compound 58] | 5 µg/mL | 7/16 | + |  |  | NS |  |  | NS |  |  | 10 µg/mL | 33/33 | NS | NS | NS | NS | + | + | most effective analog at inhibiting the inflammatory response
6 | O=C1c2ccccc2C(=O)N1c1nc2ccc(C(F)(F)F)cc2s1 [Compound 59, 2-(6-Trifluoromethyl-benzothiazol-2-yl)-1H-isoindole-1,3(2H)-dione] | 100 µg/mL | 6/11 | + |  |  | + |  |  | NS |  |  | 10 µg/mL | 21/32 | NS | NS | NS | NS | + | NS | 
7 | O=C1c2cccc(O)c2C(=O)N1c1nc2ccc(C(F)(F)F)cc2s1 [Compound 61] | 1 µg/mL | 9/20 | + |  |  | + |  |  | − |  |  | 100 µg/mL | 3/15 | NS | NS | NS | NS | NS | + | 
8 | O=C1c2ccccc2CN1c1nc2ccc(C(F)(F)F)cc2s1 [Compound 62] | 10 µg/mL | 6/20 | + |  |  | NS |  |  | NS |  |  | 10 µg/mL | 18/20 | NS | NS | NS | NS | NS | NS | 
